Data from paper PMC4890124, “Antimicrobial activity, improved cell selectivity and mode of action of short PMAP-36-derived peptides against bacteria and Candida” (Scientific Reports, 2016).
In brackets after ≈: the same amount, converted by molar mass. Peptide text beside a SMILES is read from it.

Assays:
[1] = system: Salmonella enterica serovar typhimurium C77-31; format: cell-based; details: three independent experiments
Method: (§1) The peptide antibacterial activity was determined against both gram-positive and gram-negative bacteria strains, including Escherichia coli ATCC 25922, Escherichia coli UB1005, Salmonella enterica serovar typhimurium C77-31, Staphylococcus aureus ATCC 29213, Staphylococcus aureus ATCC 25923, Bacillus subtilis CMCC 63501, and Staphylococcus epidermidis ATCC 12228. Clinically isolated Escherichia coli EC183 was provided by the 4th Affiliated Hospital of Harbin Medical University. MIC of the peptides was measured using a modified version of the National Committee for Clinical Laboratory Standards (NCCLS) broth microdilution method as described previously. The bacterial strains were inoculated and grown to mid-log phase in fresh Mueller-Hinton broth (MHB) at 37 °C. Bacterial inoculum suspensions were prepared at a final concentration of approximately 1 × 10^5 CFU/ml. Peptides were 2-fold serially diluted to make different concentrations, from 0.5 to 256 μM. Equal volumes of inoculum suspensions were then added to each well of a sterile 96-well plate with different concentrations of peptides, and the plate was incubated for 18 h at 37 °C. Broth with or without bacteria was employed as the positive control or the negative control, respectively. MIC was defined as the lowest concentration of peptides that prevented visible turbidity by visual inspection. […] After overnight incubation at 37 °C, MBC was defined as the lowest concentration of peptides that killed at least 99.9% of the initial inoculums. Experiments were performed in triplicate with three biological replicates.

[2] = system: Staphylococcus epidermidis ATCC 12228; format: cell-based; details: ATCC 12228, 18 h
Method: as §1

[3] = system: Escherichia coli ATCC 25922; format: cell-based; details: ATCC 25922, 18 h
Method: as §1

[4] = system: Clinically isolated Escherichia coli EC183; format: cell-based; details: Clinically isolated EC183, 18 h
Method: as §1

[5] = system: Bacillus subtilis CMCC 63501; format: cell-based; details: CMCC 63501, 18 h
Method: as §1

Escherichia coli UB1005 = format: cell-based; details: UB1005, 18 h
Method: as §1

[6] = system: Staphylococcus aureus ATCC 29213; format: cell-based; details: ATCC 29213, 18 h
Method: as §1

[7] = system: Staphylococcus aureus ATCC 25923; format: cell-based; details: ATCC 25923, 18 h
Method: as §1

[8] = system: C. albicans CA276 (clinical isolate); test: microbe, parasite or virus in culture; format: cell-based, Candida albicans; details: CA276 (clinical isolate, 48 h)
Source text: (§2) The antifungal activities were monitored in RPMI-1640 broth medium by a 2-fold microdilution assay according to the Clinical and Laboratory Standards Institute (CLSI) methods. The Candida albicans CGMCC 2.2086, Candida tropicalis CGMCC 2.1975, and Candida krusei CGMCC 2.1857 fungal strains were purchased from the China General Microbiological Culture Collection Center (CGMCC, Beijing, China). Clinically isolated Candida albicans CA2761 was provided by the 4th Affiliated Hospital of Harbin Medical University. Briefly, fungal strains were cultured on YPD agar plates (1% peptone, 0.5% yeast extract, 1% glucose and 2% agar) at 28 °C to prepare Candida suspensions with a turbidity of a 0.5 McFarland standard. A total of 50 μl inoculum cell suspension diluted in RPMI-1640 broth medium was added to an equal volume of peptide solution to achieve a final peptide concentrations ranging from 0.25 μM to 128 μM in a 96-well plate. Pure broth alone or with inoculum suspensions was used as the negative control or the positive control, respectively. The plate was incubated at 28 °C for 48 h. MIC was considered the lowest concentration at which no fungal growth was visually observed under experimental conditions. […] After 48 h incubation at 28 °C, MFC was defined as the lowest concentration of peptides that killed at least 99.9% of the initial inoculums. Experiments were performed in triplicate with three biological replicates.

[9] = system: Candida albicans CGMCC 2.2086; test: microbe, parasite or virus in culture; format: cell-based; details: CGMCC 2.2086, 48 h
Source text: as §2

[10] = system: Candida tropicalis CGMCC 2.1975; test: microbe, parasite or virus in culture; format: cell-based; details: CGMCC 2.1975, 48 h
Source text: as §2

[11] = system: Candida krusei CGMCC 2.1857; test: microbe, parasite or virus in culture; format: cell-based; details: CGMCC 2.1857, 48 h
Source text: as §2

CC[C@H](C)[C@H](NC(=O)[C@H](Cc1c[nH]c2ccccc12)NC(=O)[C@H](CCCCN)NC(=O)[C@H](CC(C)C)NC(=O)[C@@H](NC(=O)[C@H](CCCCN)NC(=O)CNC(=O)[C@@H](NC(=O)[C@H](CCCCN)NC(=O)[C@H](CCCCN)NC(=O)[C@H](CC(C)C)NC(=O)[C@H](CCCNC(=N)N)NC(=O)[C@H](CCCCN)NC(=O)[C@H](CCCNC(=N)N)NC(=O)[C@@H](NC(=O)[C@H](CCCCN)NC(=O)[C@H](CCCCN)NC(=O)[C@H](CCCNC(=N)N)NC(=O)[C@H](CC(C)C)NC(=O)[C@H](CCCNC(=N)N)NC(=O)[C@@H](N)CCCNC(=N)N)[C@@H](C)O)[C@@H](C)CC)C(C)C)C(N)=O [RI21] (H-RRLRKKTRKRLKKIGKVLKWI-NH2)
MIC S. typhi C77-31 ([1]; broth microdilution, MHB, ~1 × 10^5 CFU/ml, 18 h at 37 °C, visual): 1 µM (≈ 2.7 µg/mL) | MBC S. typhi C77-31 ([1]; lowest concentration killing at least 99.9% of initial inoculum): 2 µM (≈ 5.41 µg/mL) | MBC S. epidermidis 12228 [2]: 8 µM (≈ 21.6 µg/mL) | MIC S. epidermidis 12228 [2]: 4 µM (≈ 10.8 µg/mL) | MBC E. coli 25922 [3]: 8 µM (≈ 21.6 µg/mL) | MIC E. coli 25922 [3]: 2 µM (≈ 5.41 µg/mL) | MBC E. coli EC183 [4]: 2 µM (≈ 5.41 µg/mL) | MIC E. coli EC183 [4]: 1 µM (≈ 2.7 µg/mL) | MBC B. subtilis 63501 [5]: 4 µM (≈ 10.8 µg/mL) | MIC B. subtilis 63501 [5]: 1 µM (≈ 2.7 µg/mL) | MBC E. coli 1005 (Escherichia coli UB1005): 2 µM (≈ 5.41 µg/mL) | MIC E. coli 1005 (Escherichia coli UB1005): 2 µM (≈ 5.41 µg/mL) | MBC S. aureus 29213 [6]: 4 µM (≈ 10.8 µg/mL) | MIC S. aureus 29213 [6]: 4 µM (≈ 10.8 µg/mL) | MBC S. aureus 25923 [7]: 4 µM (≈ 10.8 µg/mL) | MIC S. aureus 25923 [7]: 4 µM (≈ 10.8 µg/mL) | MFC [8]: 32 µM (≈ 86.5 µg/mL) | MIC [8]: 8 µM (≈ 21.6 µg/mL) | MFC ([9]; read-out: MFC C. albicans 2.2086): 16 µM (≈ 43.3 µg/mL) | MIC ([9]; read-out: MIC C. albicans 2.2086): 8 µM (≈ 21.6 µg/mL) | MFC ([10]; read-out: MFC C. tropicalis 2.1975): 2 µM (≈ 5.41 µg/mL) | MIC ([10]; read-out: MIC C. tropicalis 2.1975): 1 µM (≈ 2.7 µg/mL) | MFC ([11]; read-out: MFC C. krusei 2.1857): 4 µM (≈ 10.8 µg/mL) | MIC ([11]; read-out: MIC C. krusei 2.1857): 2 µM (≈ 5.41 µg/mL)
